Key:
Assay type in all cases: in vivo
[1] = test system: Spodoptera littoralis (Egyptian Cotton Leafworm); assay: Spodoptera littoralis cotton leaf disc spray test; details: same protocol, 200 ppm, 3 DAT
Method: (§1) This Example illustrates the pesticidal/insecticidal properties of compounds of formula (I). Tests were performed as follows:
Spodoptera littoralis (Egyptian Cotton Leafworm):
(§2) • Cotton leaf discs were placed on agar in a 24-well microtiter plate and sprayed with test solutions at an application rate of 200 ppm. After drying, the leaf discs were infested with 5 L1 larvae. The samples were checked for mortality, feeding behaviour, and growth regulation 3 days after treatment (DAT). • The following compounds gave at least 80% control of Spodoptera littoralis: A1, A2, A3, A4, A5, A6, A10, A13, A17, A19. Heliothis virescens (Tobacco Budworm): • Eggs (0-24 h old) were placed in 24-well microtiter plate on artificial diet and treated with test solutions at an application rate of 200 ppm (concentration in well 18 ppm) by pipetting. After an incubation period of 4 days, samples were checked for egg mortality, larval mortality, and growth regulation. • The following compounds gave at least 80% control of Heliothis virescens: A1, A2, A3, A4, A5, A6, A7, A9, A10, A11, A12, A14, A17, A18, A19, A21. Plutella xylostella (Diamond Back Moth): • 24-well microtiter plate (MTP) with artificial diet was treated with test solutions at an application rate of 200 ppm (concentration in well 18 ppm) by pipetting. After drying, the MTP's were infested with L2 larvae (7-12 per well). […]

[2] = test system: Heliothis virescens (Tobacco Budworm); assay: Heliothis virescens egg test on artificial diet; details: same protocol, 200 ppm, 4 days
Method: as §1, §2

[3] = test system: Plutella xylostella (Diamond Back Moth); assay: Plutella xylostella larvae test on artificial diet; details: same protocol, 200 ppm, 6 days
Method: as §1, §2

[4] = test system: Diabrotica balteata (Corn Root Worm); assay: Diabrotica balteata larvae test on artificial diet; details: same protocol, 200 ppm, 5 days

Measured: damage to the test organisms

CSc1cc(C(F)(F)F)ccc1C(=O)Nc1cc(C(=O)Nc2c(C)cc(C3(C(F)(F)F)CC(c4ccc(Cl)cc4)=NO3)cc2C)ccc1C#N (centres unmarked) [A8]
little or no damage: [1] | [2] | [3] | [4]

COC(=O)c1ccc(C(=O)Nc2cc(C(=O)Nc3c(C)cc(C4(C(F)(F)F)CC(c5ccc(Cl)cc5)=NO4)cc3C)ccc2C#N)cc1 (centres unmarked) [A20]
little or no damage: [1] | [2] | [3] | [4]
